Entries after “also recorded” stand apart in the source; their conditions may differ. Where a name gives a salt, the structure may show the parent alone. Read-outs that look alike come from different tables or passages of the source.
Tests used:
iHeps in iMPCCs [1] = system: iHeps in iMPCCs
[2] = cited from earlier work
iMPCCs [3] = system: iMPCCs
CYP2C9 [4] = conditions: rifampin 25 μM or phenobarbital 1 mM, 4 days
CYP3A4 = conditions: human
CYP2C9 [5] = conditions: rifampin 25 μM or phenobarbital 1 mM, 4 days; remark: listed apart in the source
[6] = system: primary hepatocytes (HUM4011)
[7] = negative number: withdrawn from the market; higher positive numbers: greater DILI concern; cited from earlier work
[8] = system: primary human hepatocytes in MPCCs; conditions: (ref 19), cited from earlier work; for TC50 in MPCCs ATP: concentration at which activity decreases by 50% of DMSO-only controls
CYP1A2 = CYP1A2 induction in iMPCCs (7-ethoxyresorufin O-dealkylation); type: cell-based, human
iMPCCs [9] = assay: Drug toxicity studies: iMPCCs treated for 8 days with multiple doses; conditions: increasing doses
iHeps in iMPCCs [10] = assay: Drug toxicity screening in iMPCCs (albumin, ATP, urea; binary decision and TC50)
[11] = total human plasma concentration

CC(=O)Oc1ccccc1C(=O)O [Aspirin]
Model predictions iMPCC (binary decision) (iHeps in iMPCCs [1]): −
Cmax [2, 11]: 5.53 µM
Model predictions iCC (binary decision) (iHeps in iCCs): −
albumin production in iMPCCs (iMPCCs [3]): minimally affected
urea production in iMPCCs (iMPCCs [3]): minimally affected

CCC1(c2ccccc2)C(=O)NC(=O)NC1=O [phenobarbital]
CYP2C9 functional activity induction in iMPCCs (CYP2C9 [4]): significant increases; also recorded: induced
CYP2C9 gene expression induction in iMPCCs (CYP2C9 [4]): inducible; also recorded: induced
fold induction of CYP3A4 transcripts in iMPCCs relative to PHH-MPCCs (CYP3A4): 60-130%
induction in CYP3A4 functions in iMPCCs relative to PHH-MPCCs (CYP3A4): 44-79%
CYP2C9 induction response in iCCs (CYP2C9 [5]): induced functional activity; also recorded: severely blunted

O=C(O)/C=C\C(=O)O [Maleic acid]
Model predictions iMPCC (binary decision) (iHeps in iMPCCs [1]): −
Cmax [2, 11]: 1 µM
toxicity call in another donor of primary hepatocytes [6]: borderline positive

CN(C)CCCN1c2ccccc2CCc2ccccc21 [Imipramine HCl]
DILI Sev (DILI severity scores from the LTKB of the FDA) [7]: 3

CC/C(=C(\c1ccccc1)c1ccc(OCCN(C)C)cc1)c1ccccc1 [Tamoxifen]
TC50 in MPCCs Albumin (iHeps in iMPCCs [1]; human, 6 days): 4.2 µM
TC50 in MPCCs Urea (iHeps in iMPCCs [1]; human, 6 days): 11.7 µM
Cmax [2, 11]: 0.162 µM
Model predictions iCC (binary decision) (iHeps in iCCs): −
TC50 in MPCCs Albumin [8]: 3.2 µM
TC50 in MPCCs Urea [8]: 3.9 µM
TC50 in MPCCs ATP [8]: 15.8 µM

Nc1ccc(S(=O)(=O)c2ccc(N)cc2)cc1 [Dapsone]
Model predictions iMPCC (binary decision) (iHeps in iMPCCs [1]): −
toxicity call in iMPCCs / iHeps (iHeps in iMPCCs [1]): false negative result
Cmax [2, 11]: 6.01 µM
toxicity call in another donor of primary hepatocytes [6]: false negative

CCOc1ccc(NC(C)=O)cc1 [Phenacetin]
TC50 in MPCCs Albumin (iHeps in iMPCCs [1]; human, 6 days): 1213.3 µM
TC50 in MPCCs Urea (iHeps in iMPCCs [1]; human, 6 days): 253.3 µM
Cmax [2, 11]: 13.4 µM
Model predictions iCC (binary decision) (iHeps in iCCs): −
toxicity call in iCCs (iHeps in iCCs): not identified as toxic
TC50 in MPCCs Urea [8]: 1076.1 µM

CC(=O)O[C@]1(C(C)=O)CC[C@H]2[C@@H]3C=C(Cl)C4=CC(=O)[C@@H]5C[C@@H]5[C@]4(C)[C@H]3CC[C@@]21C [Cyproterone acetate]
toxicity call in iMPCCs / iHeps (iHeps in iMPCCs [1]): toxic
TC50 in MPCCs Albumin (iHeps in iMPCCs [1]; human, 6 days): 51.0 µM
TC50 in MPCCs Urea (iHeps in iMPCCs [1]; human, 6 days): 33.1 µM
Cmax [2, 11]: 0.656 µM
Model predictions iCC (binary decision) (iHeps in iCCs): −
toxicity call in iCCs (iHeps in iCCs): non-toxic
TC50 in MPCCs Urea [8]: 41.0 µM
TC50 in MPCCs ATP [8]: 39.1 µM

CNCCc1ccccn1.Cl.Cl [Betahistine 2HCl]
Model predictions iMPCC (binary decision) (iHeps in iMPCCs [1]): −
Cmax [2, 11]: 0.004 µM
DILI Sev (DILI severity scores from the LTKB of the FDA) [7]: 6

O=C1CC2(CCCC2)CC(=O)N1CCCCN1CCN(c2ncccn2)CC1 [Buspirone]
Cmax [2, 11]: 0.005 µM
DILI Sev (DILI severity scores from the LTKB of the FDA) [7]: 3

Cc1c(C)c2c(c(C)c1O)CCC(C)(COc1ccc(CC3SC(=O)NC3=O)cc1)O2 (stereo not shown) [Troglitazone]
DILI Sev (DILI severity scores from the LTKB of the FDA) [7]: −2
albumin production in iMPCCs (iMPCCs [3]): declined significantly
urea production in iMPCCs (iMPCCs [3]): declined significantly

CNCCC=C1c2ccccc2CCc2ccccc21 [Nortriptyline HCl]
Cmax [2, 11]: 0.122 µM
DILI Sev (DILI severity scores from the LTKB of the FDA) [7]: 8

COc1ccc2[nH]c([S+]([O-])Cc3ncc(C)c(OC)c3C)nc2c1 (stereo not shown) [omeprazole]
induction of iMPCC CYP1A2 activity (CYP1A2; 4 days): dose-dependent manner
CYP1A2 fold induction in iMPCCs as % of values in PHH-MPCCs (CYP1A2; same dose and duration): ~70%

CC(=O)Nc1nnc(S(N)(=O)=O)s1 [Acetazolamide]
Model predictions iMPCC (binary decision) (iHeps in iMPCCs [1]): −
Cmax [2, 11]: 135 µM
toxicity call in another donor of primary hepatocytes [6]: false negative

COC(=O)Nc1nc2ccc(C(=O)c3ccccc3)cc2[nH]1 [Mebendazole]
TC50 in MPCCs Albumin (iHeps in iMPCCs [1]; human, 6 days): 1.9 µM
TC50 in MPCCs Urea (iHeps in iMPCCs [1]; human, 6 days): 2.3 µM
Cmax [2, 11]: 0.126 µM
TC50 in MPCCs Albumin [8]: 11.6 µM
TC50 in MPCCs ATP [8]: 11.5 µM

C=C[C@H]1C[N@@]2CC[C@H]1C[C@H]2[C@H](O)c1ccnc2ccc(OC)cc12 [Quinine]
TC50 in MPCCs ATP (iHeps in iMPCCs [1]; human, 6 days): 182.2 µM
TC50 in MPCCs Albumin (iHeps in iMPCCs [1]; human, 6 days): 115.7 µM
TC50 in MPCCs Urea (iHeps in iMPCCs [1]; human, 6 days): 127.9 µM
Cmax [2, 11]: 9.25 µM
TC50 in MPCCs Albumin [8]: 251.6 µM
TC50 in MPCCs Urea [8]: 285.2 µM
TC50 in MPCCs ATP [8]: 259.1 µM

Cc1cccc(Nc2ccccc2C(=O)O)c1C [Mefenamic acid]
TC50 in MPCCs ATP (iHeps in iMPCCs [1]; human, 6 days): 2551.9 µM
TC50 in MPCCs Albumin (iHeps in iMPCCs [1]; human, 6 days): 410.3 µM
TC50 in MPCCs Urea (iHeps in iMPCCs [1]; human, 6 days): 572.3 µM
Cmax [2, 11]: 27 µM
TC50 in MPCCs Albumin [8]: 1291.9 µM
TC50 in MPCCs Urea [8]: 1255.1 µM
TC50 in MPCCs ATP [8]: 1393.4 µM

COc1ccc2c(c1)[C@]13CCCC[C@@H]1[C@H](C2)N(C)CC3 [Dextromethorphan HBr]
Cmax ([2]; human, in vivo): 0.028 µM
albumin production in iMPCCs (iMPCCs [9]): minimally affected
urea production in iMPCCs (iMPCCs [9]): minimally affected

NC(=O)c1cnccn1 [Pyrazinamide]
toxicity call in iMPCCs / iHeps (iHeps in iMPCCs [1]): toxic
TC50 in MPCCs Albumin (iHeps in iMPCCs [1]; human, 6 days): 33457.5 µM
Cmax [2, 11]: 407 µM
Model predictions iCC (binary decision) (iHeps in iCCs): −
toxicity call in iCCs (iHeps in iCCs): non-toxic
TC50 in MPCCs Albumin [8]: 20420.3 µM
TC50 in MPCCs Urea [8]: 14781.6 µM
TC50 in MPCCs ATP [8]: 19695.5 µM
DILI Sev (DILI severity scores from the LTKB of the FDA) [7]: 3

CC(=O)Nc1ccc(O)cc1 [Acetaminophen]
albumin production in iMPCCs (iMPCCs [3]): declined significantly
urea production in iMPCCs (iMPCCs [3]): declined significantly

O=P1(N(CCCl)CCCl)NCCCO1 (stereo not shown) [Cyclophosphamide]
Cmax [2, 11]: 265 µM
TC50 in MPCCs Albumin [8]: 1449.4 µM
TC50 in MPCCs Urea [8]: 1746.0 µM
TC50 in MPCCs ATP [8]: 6165.0 µM
TC50 in MPCCs Albumin (iHeps in iMPCCs [10]): 18670.7 µM

CC(C(=O)O)c1ccc(-c2ccccc2)c(F)c1 (stereo not shown) [Flurbiprofen]
comparison of urea TC50 values, iHeps versus primary hepatocytes (iHeps in iMPCCs [1]; human, 6 days): higher TC50 in iHeps
Cmax [2, 11]: 57.4 µM
TC50 in MPCCs Albumin [8]: 2406.8 µM
TC50 in MPCCs Urea [8]: 2459.0 µM
TC50 in MPCCs ATP [8]: 3351.1 µM
TC50 in MPCCs Albumin (iHeps in iMPCCs [10]): 5683.4 µM
DILI Sev (DILI severity scores from the LTKB of the FDA) [7]: 3

NC(=O)NO [Hydroxyurea]
TC50 in MPCCs ATP (iHeps in iMPCCs [1]; human, 6 days): 49358.3 µM
TC50 in MPCCs Albumin (iHeps in iMPCCs [1]; human, 6 days): 18398.4 µM
Cmax [2, 11]: 794 µM
TC50 in MPCCs Albumin [8]: 28616.2 µM
TC50 in MPCCs Urea [8]: 19647.8 µM
TC50 in MPCCs ATP [8]: 7407.0 µM

Cc1ccc(C(=O)c2cc(O)c(O)c([N+](=O)[O-])c2)cc1 [tolcapone]
albumin secretions in iMPCCs, toxicity over time and dose (iHeps in iMPCCs [1]): time- and dose-dependent toxicities
albumin production in iMPCCs (iMPCCs [3]): declined significantly
urea production in iMPCCs (iMPCCs [3]): declined significantly

C[C@@H]1C[C@H]2[C@@H]3CCC4=CC(=O)C=C[C@]4(C)[C@@]3(F)[C@@H](O)C[C@]2(C)[C@@]1(O)C(=O)CO [Dexamethasone]
Model predictions iMPCC (binary decision) (iHeps in iMPCCs [1]): −
Cmax [2, 11]: 0.224 µM
Model predictions iCC (binary decision) (iHeps in iCCs): −
DILI Sev (DILI severity scores from the LTKB of the FDA) [7]: 3

CCc1oc2ccccc2c1C(=O)c1cc(Br)c(O)c(Br)c1 [Benzbromarone]
Cmax [2, 11]: 4.36 µM
TC50 in MPCCs Albumin [8]: 31.3 µM
TC50 in MPCCs Urea [8]: 27.9 µM
TC50 in MPCCs ATP [8]: 15.1 µM
DILI Sev (DILI severity scores from the LTKB of the FDA) [7]: −2

CN1C(C(=O)Nc2ccccn2)=C(O)c2ccccc2S1(=O)=O [Piroxicam]
toxicity call in iMPCCs / iHeps (iHeps in iMPCCs [1]): toxic
Cmax [2, 11]: 5.13 µM
DILI Sev (DILI severity scores from the LTKB of the FDA) [7]: 3

NNC(=O)c1ccncc1 [Isoniazid]
toxicity call in iMPCCs / iHeps (iHeps in iMPCCs [1]): toxic
Cmax [2, 11]: 76.6 µM
Model predictions iCC (binary decision) (iHeps in iCCs): −
toxicity call in iCCs (iHeps in iCCs): non-toxic
TC50 in MPCCs Urea [8]: 4579.6 µM
TC50 in MPCCs Albumin (iHeps in iMPCCs [10]): 6681.5 µM
DILI Sev (DILI severity scores from the LTKB of the FDA) [7]: 8

— patent US10266806B2, “Stem cell-derived hepatocytes in co-culture and uses thereof” (Colorado State University Research Foundation, priority 2014, dated 2019)
